“Also recorded” adds a separate entry of the source.
Experiments:
[1] = tested on: mouse BMP-2 mRNA; assay: Real-time RT-PCR of BMP-2 mRNA in bone marrow MSCs from OVX mice; type: cell-based; settings: 100 nM E2, 24 hr
Protocol: Two months old Swiss-Webster female mice (ICR) were OVX in accordance with mandated standards of humane care, and the animals were maintained in accordance with the NIH Guide for the Care and Use of Laboratory Animals. After 5 months post-surgery, bone marrow was isolated from femurs and tibias, and the MSCs were cultured as described previously (Gazit et al. 1999 and Zhou et al. 2001). The bone marrow cells were maintained in DMEM (Phenol red free, 1.0 g/L glucose, Biological Industries, Israel) with 15% FBS (Charcoal stripped, heat-inactivated), 100 units/ml penicillin, 100 μg/ml streptomycin, and 2 mM glutamine. […]
(§1) RNA was isolated using TRizol Reagent (Life Technologies, USA), according to the manufacturer's protocol. Semi-quantitative RT-PCR was performed as described previously (Zhou et al. 2001). […]
Real-Time PCR was performed using a Roche LightCycler according to the manufacturer's protocol (Roche Molecular Biochemicals, USA). […] Fluoresence was measured at 82° C. for 5 s. To quantify the copy number of the mouse BMP-2 mRNA in MSCs, pGEM-T-mouse BMP-2 plasmids ([…]) were used in standard curve.
All experiments were performed three to five times independently. […] The semi-quantitative RT-PCR and real-time RT-PCR were performed 3 times in independent experiments using total RNA that was isolated from MSCs derived from 3-6 animals each time. […]

[2] = tested on: mouse BMP-2 mRNA; assay: Semi-quantitative RT-PCR of BMP-2 mRNA in MSCs from OVX mice; type: cell-based; settings: for BMP-2 mRNA expression, effect of the substance alone: E2 100 nM, ICI 10 μM, tamoxifen 1.0 μM, raloxifene 100 nM
Protocol: (§2) Two months old Swiss-Webster female mice (ICR) were OVX in accordance with mandated standards of humane care, and the animals were maintained in accordance with the NIH Guide for the Care and Use of Laboratory Animals. After 5 months post-surgery, bone marrow was isolated from femurs and tibias, and the MSCs were cultured as described previously (Gazit et al. 1999 and Zhou et al. 2001). The bone marrow cells were maintained in DMEM (Phenol red free, 1.0 g/L glucose, Biological Industries, Israel) with 15% FBS (Charcoal stripped, heat-inactivated), 100 units/ml penicillin, 100 μg/ml streptomycin, and 2 mM glutamine. At day 4, the cultures were supplemented with 50 μg/ml ascorbic acid, 10 mM β-glycerophosphate, and 10 nM dexamethasone. From day 10, the cells were cultured in DMEM with 2% charcoal stripped (CS)-FBS without osteogenic supplements. […] RNA then was isolated at day 12. […] Mouse C3H10T1/2 cells were cultivated in DMEM (Sigma and Biological Industries) with 10% FBS, 100 units/ml penicillin, 100 μg/ml streptomycin, and 2 mM glutamine.
RNA was isolated using TRizol Reagent (Life Technologies, USA), according to the manufacturer's protocol. Semi-quantitative RT-PCR was performed as described previously (Zhou et al. 2001). Mouse BMP-2 (505 bp) (Zhou et al. 2001), internal control RPL19 (190 bp) (Orly et al. 1994) and c-myc (550 bp) (Goswami et al. 1997) primers were described previously. The PCR conditions used for mouse BMP-2 RT-PCR were 30 cycles of 94 C for 1 min, 55 C for 1 min and 72 for 2 min in an MJ MiniCycler (MJ Research, USA). RT-PCR products of mouse BMP-2 were cloned into the pGEM-T Easy vector (A1360, Promega), and the pGEM-T-mouse BMP-2 vectors were sequenced by a T7 sequence sequencing kit (US70770, USB, Cleveland, USA) according to the manufacturer's protocols. DNA sequence analysis confirmed that mouse BMP-2 had been amplified.
All experiments were performed three to five times independently. Data re presented as the mean values±the standard error of the mean. The semi-quantitative RT-PCR and real-time RT-PCR were performed 3 times in independent experiments using total RNA that was isolated from MSCs derived from 3-6 animals each time. Quantitative data were analyzed using either the non-parameteric Mann-Whitney test or the ANOVA test.

[3] = tested on: c-myc mRNA; assay: Semi-quantitative RT-PCR of c-myc mRNA in MSCs from OVX mice; type: cell-based, mouse; settings: 5.0 μM cycloheximide
Protocol: as §2, §1

[4] = biological target: human ERβ (Homo sapiens, UniProt Q92731); assay: Mouse BMP-2 promoter-luciferase assay in C3H10T1/2 cells co-transfected with human ERβ; settings: 24 hr; E2 different doses or 10 nM, raloxifene 100 nM, tamoxifen 1.0 μM, genistein 100 nM
Sequence of human ERβ (Q92731 46-530 limits assumed): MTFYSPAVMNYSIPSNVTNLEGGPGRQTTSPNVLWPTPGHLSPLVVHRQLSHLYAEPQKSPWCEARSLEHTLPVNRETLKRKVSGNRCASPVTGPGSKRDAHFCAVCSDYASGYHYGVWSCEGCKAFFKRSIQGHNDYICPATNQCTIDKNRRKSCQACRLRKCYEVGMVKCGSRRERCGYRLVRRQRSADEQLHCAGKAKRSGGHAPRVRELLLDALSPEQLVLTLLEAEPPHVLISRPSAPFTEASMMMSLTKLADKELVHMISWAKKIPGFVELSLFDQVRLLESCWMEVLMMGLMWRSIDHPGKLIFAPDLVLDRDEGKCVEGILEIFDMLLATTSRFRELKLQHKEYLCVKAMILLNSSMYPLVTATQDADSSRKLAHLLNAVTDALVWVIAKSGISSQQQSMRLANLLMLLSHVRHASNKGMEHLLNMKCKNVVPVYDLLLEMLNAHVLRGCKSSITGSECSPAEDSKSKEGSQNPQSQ

`C[C@]12CC[C@@H]3c4ccc(O)cc4CC[C@H]3[C@@H]1CC[C@@H]2O` [E2, estradiol] was tested, and the “increase of mouse BMP-2 mRNA levels” value ([1]; versus untreated) was 2.4 fold and the “mouse BMP-2 mRNA levels” value ([1]; in 2 μg of total RNA, untreated 570±81 copies, p<0.05, ANOVA) was 1337±177 copies.

With `C[C@]12CC[C@@H]3c4ccc(O)cc4C[C@@H](CCCCCCCCC[S+]([O-])CCCC(F)(F)C(F)(F)F)[C@H]3[C@@H]1CC[C@@H]2O` (stereo partly drawn) [ICI-182,780] the “BMP-2 mRNA expression, effect of the substance alone” value (“BMP-2 mRNA expression, effect” for short) ([2]; 24 hr, listed as ICI) was “had no effect; also recorded: failed to activate” and the “effect on up-regulation of BMP-2 mRNA expression by E2” value ([2]; ICI 10 μM with E2 100 nM, 24 hr, listed as ICI) was “blocked; also recorded: inhibited”.

`C[C@@H]1C[C@@H]([C@H](O)CC2CC(=O)NC(=O)C2)C(=O)[C@@H](C)C1` [cycloheximide] was tested, and the “c-myc mRNA levels” value [3] was “super-induction; also recorded: superinduction” and the “effect on up-regulation of BMP-2 mRNA by E2” value ([2]; 5.0 μM cycloheximide added 45 min before 100 nM E2, RNA 4 hr after E2) was “did not block”.

`O=C(c1ccc(OCCN2CCCCC2)cc1)c1c(-c2ccc(O)cc2)sc2cc(O)ccc12` [raloxifene] was tested, and the “full-length mouse BMP-2 promoter (−2712) activity via ERβ” value [4] was “not via ERβ” and the “BMP-2 mRNA expression, effect” value ([2]; 24 hr) was “failed to activate”.

`CC/C(=C(\c1ccccc1)c1ccc(OCCN(C)C)cc1)c1ccccc1` [tamoxifen] was tested, and the “BMP-2 mRNA expression, effect” value ([2]; 24 hr) was “failed to activate”.

Reference: US20050271637A1, “BMP-2 estrogen responsive element and methods of using the same” (priority 2002, published 2005)
